# Results from patent publication US11999727B2 (Tango Therapeutics, Inc., priority 2020, dated 2024).
# Columns and labels:
# PRMT5 [1] = target: T1, PRMT5 (Homo sapiens, UniProt O14744); test: PRMT5 biochemical IC50 assay with SAM as cofactor; settings: PRMT5, SAM as cofactor; read-out: SAM IC50
# T1 construct: purchased Viva (custom protein)
# [2] = test system: HAP1 MTAP-deleted cell line; test: SDMA in-cell western assay, HAP1 MTAP-deleted; assay type: cell-based; settings: for IC50: Homo sapiens, HAP1, SDMA in-cell western, HAP1 MTAP-deleted, read-out: HAP 1 MTAP deleted IC50; for MTAP intact/deleted ratio: IC50 ratio HAP1 MTAP-intact / HAP1 MTAP-deleted, SDMA in-cell western
# Outline: (§1)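 Readout: in-cell western detection of SDMA. Cells: HAP1 expressing endogenous MTAP and an MTAP-null HAP1 counterpart. Output: IC50.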
# PRMT5 [3] = target: T1, PRMT5; test: PRMT5 biochemical IC50 assay with no cofactor; settings: PRMT5, no cofactor; read-out: No Cofactor/ rel IC50
# From the text: Table 1 indicates IC50 values (μM) against PRMT5 for exemplary compounds in the presence of SAM as cofactor, with no cofactor, and with MTA as cofactor, respectively (columns 4-6). […] Ki values can be calculated from the IC50 values as described in the Examples section. As detailed in the Examples section, for the assay performed in the presence of SAM, IC50=Ki×1.5 (Ki=IC50/1.5).
# [4] = test system: HAP1 MTAP-intact cell line; test: SDMA in-cell western assay, HAP1 MTAP-intact; assay type: cell-based; settings: Homo sapiens, HAP1, SDMA in-cell western, HAP1 MTAP-intact; read-out: MTAP HAP1 intact IC50
# Outline: as §1
# [5] = test system: HAP1 MTAP-deleted cell line; test: Viability assay, MTAP-deleted cell line; assay type: cell-based; settings: Homo sapiens, HAP1, viability, HAP1 MTAP-deleted cell line; read-out: HAP1 MTAP deleted viability
# From the text: Table 1 additionally indicates IC50 values in a viability assay for the MTAP-deleted cell line (column 10), indicating the effect of treatment with compound on cell survival.
# PRMT5 [6] = target: T1, PRMT5; test: PRMT5 biochemical IC50 assay with MTA as cofactor; settings: PRMT5, MTA as cofactor; read-out: MTA IC50
# T1 sequence (O14744 whole entry): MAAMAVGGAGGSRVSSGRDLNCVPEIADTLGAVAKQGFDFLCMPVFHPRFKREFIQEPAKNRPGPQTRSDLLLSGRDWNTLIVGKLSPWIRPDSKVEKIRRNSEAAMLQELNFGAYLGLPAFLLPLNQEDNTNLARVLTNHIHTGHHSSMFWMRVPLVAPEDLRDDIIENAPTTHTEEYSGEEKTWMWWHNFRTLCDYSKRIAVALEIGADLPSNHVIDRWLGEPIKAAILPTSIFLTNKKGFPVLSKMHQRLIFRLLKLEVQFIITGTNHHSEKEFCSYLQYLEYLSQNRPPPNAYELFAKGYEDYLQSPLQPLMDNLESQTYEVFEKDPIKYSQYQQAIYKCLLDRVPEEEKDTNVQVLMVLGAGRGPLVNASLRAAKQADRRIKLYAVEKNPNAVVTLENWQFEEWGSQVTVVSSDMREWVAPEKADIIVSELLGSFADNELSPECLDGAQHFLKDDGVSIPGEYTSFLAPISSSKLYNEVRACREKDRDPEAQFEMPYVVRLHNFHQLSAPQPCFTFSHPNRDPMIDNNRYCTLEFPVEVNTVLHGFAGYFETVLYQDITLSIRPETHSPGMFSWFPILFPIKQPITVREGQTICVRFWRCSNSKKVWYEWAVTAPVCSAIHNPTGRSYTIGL
# T1 sequence (Q9BQA1 whole entry partner): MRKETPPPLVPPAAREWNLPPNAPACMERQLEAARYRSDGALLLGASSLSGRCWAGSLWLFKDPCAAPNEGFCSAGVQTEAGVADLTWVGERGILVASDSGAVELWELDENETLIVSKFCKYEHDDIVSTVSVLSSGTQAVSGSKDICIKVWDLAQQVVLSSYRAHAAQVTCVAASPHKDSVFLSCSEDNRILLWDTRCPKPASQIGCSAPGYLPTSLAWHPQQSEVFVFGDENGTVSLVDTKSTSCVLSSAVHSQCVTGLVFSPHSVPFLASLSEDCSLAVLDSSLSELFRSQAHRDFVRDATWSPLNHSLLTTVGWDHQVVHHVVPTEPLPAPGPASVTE
SMILES,IC50 (PRMT5 [1]) [µM],IC50 [2] [µM],IC50 (PRMT5 [3]) [µM],IC50 [4] [µM],IC50 (PRMT5 [6]) [µM],MTAP intact/deleted ratio [2],IC50 [5] [µM]
"CCc1cc(NC(=O)C(=O)N2C[C@@H](C)CC[C@@H]2c2ccc3cc(C)c(C4CCN(C)CC4)nc3c2)cnc1N [Compound 1368, N-(6-amino-5-ethyl-3-pyridyl)-2-oxo-2-[(2R,5S)-5-methyl-2-[3-methyl-2-(1-methyl-4-piperidyl)-7-quinolyl]-1-piperidyl]acetamide]",0.05 to 0.5,< 0.1,< 0.05,< 0.1,< 0.05,A (an IC50 ratio greater than or equal to 10 fold),< 1
"Cc1cc(NC(=O)C(=O)N2C[C@@H](C)CC[C@@H]2c2ccc3sc(C4CCN(CC(F)F)CC4)nc3c2)cnc1N [Compound 1377, N-(6-amino-5-methylpyridin-3-yl)-2-((2R,5S)-2-(2-(1-(2,2-difluoroethyl)piperidin-4-yl)benzo[d]thiazol-5-yl)-5-methylpiperidin-1-yl)-2-oxoacetamide]",0.05 to 0.5,< 0.1,< 0.05,0.1 to 1,< 0.05,A (an IC50 ratio greater than or equal to 10 fold),< 1
"C[C@H]1CC[C@H](c2ccc3sc(CCN4CCCC4)nc3c2)N(C(=O)C(=O)Nc2cnc(N)c(C3COC3)c2)C1 [Compound 1379, N-(6-amino-5-(oxetan-3-yl)pyridin-3-yl)-2-((2R,5S)-5-methyl-2-(2-(2-(pyrrolidin-1-yl)ethyl)benzo[d]thiazol-5-yl)piperidin-1-yl)-2-oxoacetamide]",0.05 to 0.5,< 0.1,0.05 to 0.5,< 0.1,< 0.05,A (an IC50 ratio greater than or equal to 10 fold),< 1
"CCc1cc(NC(=O)C(=O)N2C[C@@H](C)CC[C@@H]2c2ccc3sc(CN(CC)C(C)C)nc3c2)cnc1N [Compound 1380, N-(6-amino-5-ethylpyridin-3-yl)-2-((2R,5S)-2-(2-((ethyl(isopropyl)amino)methyl)benzo[d]thiazol-5-yl)-5-methylpiperidin-1-yl)-2-oxoacetamide]",0.05 to 0.5,< 0.1,< 0.05,0.1 to 1,< 0.05,A (an IC50 ratio greater than or equal to 10 fold),< 1
CCc1cc(NC(=O)C(=O)N2C[C@@H](C)CC[C@@H]2c2ccc3sc([C@H]4CN(C)C(=O)CN4C)nc3c2)cnc1N [Compound 1385],0.05 to 0.5,< 0.1,< 0.05,< 0.1,< 0.05,A (an IC50 ratio greater than or equal to 10 fold),< 1

# Further lines, with some results ahead:
IC50 (PRMT5 [1]) [µM],IC50 [2] [µM],IC50 (PRMT5 [3]) [µM],IC50 [4] [µM],IC50 (PRMT5 [6]) [µM],SMILES,MTAP intact/deleted ratio [2],IC50 [5] [µM]
< 0.05,< 0.1,< 0.05,< 0.1,< 0.05,CCc1cc(NC(=O)C(=O)N2C[C@@H](C)CC[C@@H]2c2ccc3sc(C45CC(C4)N(C)C5)nc3c2)cnc1N [Compound 1372],A (an IC50 ratio greater than or equal to 10 fold),< 1
< 0.05,< 0.1,< 0.05,< 0.1,< 0.05,"CCc1cc(NC(=O)C(=O)N2C[C@@H](C)CC[C@@H]2c2ccc3sc(C4CCN(C)CC4C)nc3c2)cnc1N (stereo partly drawn) [Compound 1382, N-(6-amino-5-ethyl-3-pyridyl)-2-[(5S)-2-[2-(1,3-dimethyl-4-piperidyl)-1,3-benzothiazol-5-yl]-5-methyl-1-piperidyl]-2-oxo-acetamide]",A (an IC50 ratio greater than or equal to 10 fold),< 1
< 0.05,< 0.1,< 0.05,< 0.1,< 0.05,CCc1cc(NC(=O)C(=O)N2C[C@@H](C)CC[C@@H]2c2ccc3sc(C4CCN(C)C4)nc3c2)cnc1N (some centres unmarked) [Compound 1383],A (an IC50 ratio greater than or equal to 10 fold),< 1
